Laboratory results published in patent publication US20240060146A1, “CHEMICAL SUBSTANCE EVALUATION SYSTEM USING MULTICOLOR LIGHT-EMITTING CELLS” (TOHOKU UNIVERSITY, priority 2020, published 2024).

Tests used:
Assay type in all cases: cell-based
2H4 cells [1] = test: IL-2 Luc LTT: evaluation of chemical substance in 2H4 cells; conditions: 1 h chemical, then 25 nM PMA and 1 μM ionomycin 24 h, class from Min % suppression (nIL2LA) and Min Inh-GAPLA
Description: (§1) 2H4 cells were established from Jurkat cells according to the method described in PTL 1. First, for the preparation of 2H4 cells, a plasmid having SLG introduced downstream of the IL-2 promoter, a plasmid having SLR introduced downstream of the G3PDH promoter, and a plasmid having SLO introduced downstream of the INF-γ promoter were prepared as internal standards. These plasmids contained a resistance gene for hygromycin B, puromycin, and neomycin downstream of SLG, SLR, and SLO, respectively. The conditions for drug selection after transfection of the host Jurkat cells were as follows: in the primary selection, the cells were cultured for 1 week in the presence of a drug. In the secondary selection culture, the cells that survived in the primary selection culture were seeded in a 96-well plate at 1 cell/well or 200 cells/well, and cultured for 2 weeks under the same drug conditions. After the secondary selection culture, the cells were subjected to clone selection from the two points of signal intensity and signal induction by drug treatment. The G3PDH promoter SLR was first introduced to establish monochromatic stable cell line Jurkat: G3PDH-SLR #14D1 cells. These cells were used as the parent cell line to introduce the INF-γ promoter SLO, thereby establishing bichromatic stable cell line Jurkat: INFγ-SLO/G3PDH-SLR #2B12 cells. Subsequently, the obtained cells were used as a parent cell line to introduce the IL-2 promoter SLG, thereby establishing trichromatic stable cell line Jurkat IL-2-SLG/INFγ-SLO/G3PDH-SLR #2H4 cells.
The chemical substances listed in Table 1 were evaluated using 2H4 cells. 2H4 cells were seeded in a 96-well plate at 1×10^4/well and treated with each chemical substance for 1 hour, followed by incubating the cells with 25 nM PMA and 1 μM ionomycin for 24 hours. After 24 hours from the treatment with PMA and ionomycin, Tripluck Assay Reagent (manufactured by Toyobo Co., Ltd.) was added, and the amount of luminescence was measured with a Phelios microplate luminometer (manufactured by Atto Corporation). For control, 2H4 cells untreated with a chemical substance were also examined in the same manner. The amount of luminescence of SLG luciferase activity (IL2LA), SLR luciferase activity (GAPLA), and SLO luciferase activity (IFNLA) was measured, and IL-2LA and IFNLA were each normalized by GAPLA and determined to be nIL2LA and nIFNLA, respectively. Thereafter, for the concentration of each chemical substance, “% suppression” and “Inh-GAPLA” were determined according to the following formulas (1) and (2), and the chemical substances were evaluated by using their minimum value (Min % suppression, Min Inh-GAPLA).
In the evaluation, for control, PMA/ionomycin-treated 2H4 cells and PMA/ionomycin-untreated 2H4 cells were also measured for nIL2LA.
(§2) % suppression={(nIL2LA in 2H4 cells untreated with a chemical substance)−(nIL2LA in 2H4 cells treated with a chemical substance)}×100/(nIL2LA in 2H4 cells untreated with a chemical substance) ---(1) Inh-GAPLA=(GAPLA in 2H4 cells treated with a chemical substance)/(GAPLA in 2H4 cells untreated with a chemical substance) ---(2)

2H4 cells [2] = test: Evaluation of combination of IL-2 Luc LTT and IL-2 Luc assay; parameters: key: Positive (Pos): If the result is either LCT in the IL-2 Luc LTT or S in the IL-2 Luc assay, or both, the chemical substance is determined to be an immunosuppressive substance.; Negative (Neg): In the case other than the above, the chemical substance is determined to be a non-immunosuppressive substance; conditions: LCT in IL-2 Luc LTT or S in IL-2 Luc assay = Pos
Description: Positive (Pos): If the result is either LCT in the IL-2 Luc LTT or S in the IL-2 Luc assay, or both, the chemical substance is determined to be an immunosuppressive substance. Negative (Neg): In the case other than the above, the chemical substance is determined to be a non-immunosuppressive substance.

2H4 cells [3] = test: IL-2 Luc assay: evaluation of chemical substance in 2H4 cells; conditions: 1 h chemical, then PMA/ionomycin, luminescence after six hours, class from Min % suppression of nIL2LA
Description: as §1, §2
The chemical substances listed in Table 1 were evaluated using 2H4 cells. 2H4 cells were seeded in a 96-well plate at 2×10^5 cells/50 μl/well and treated with each chemical substance for 1 hour, followed by incubating the cells with 25 nM PMA and 1 µM ionomycin […]. After six hours from the treatment with PMA and ionomycin, Tripluc: Assay Reagent (manufactured by Toyobo Co., Ltd.) was added, and the amount of luminescence was measured with a Phelios microplate luminometer (manufactured by Atto Corporation). For control, 2H4 cells untreated with a chemical substance were also examined in the same manner. The amount of luminescence of SLG luciferase activity (IL2LA), SLR luciferase activity (GAPLA), and SLO luciferase activity (IFNLA) was measured, and IL-2LA and IFNLA were each normalized by GAPLA and determined to be nIL2LA and nIFNLA, respectively. Thereafter, for the concentration of each chemical substance, the value of suppression was calculated according to formula (1) above, and the chemical substances were evaluated by using their minimum value (Min suppression).

IL-2 Luc LTT (2H4 cells [1])	Evaluation of Combination (2H4 cells [2])	Structure (SMILES)	IL-2 Luc Assay (2H4 cells [3])
NLCT	Pos	C=CC[C@@H]1/C=C(\C)C[C@H](C)C[C@H](OC)[C@H]2O[C@@](O)(C(=O)C(=O)N3CCCC[C@H]3C(=O)O[C@H](/C(C)=C/[C@@H]3CC[C@@H](O)[C@H](OC)C3)[C@H](C)[C@@H](O)CC1=O)[C@H](C)C[C@@H]2OC [Tacrolimus (Tac), Tacrolimus]	S (Min %; suppression ≥35: Suppression (denoted as “S”; determined to have immunosuppressive action))
NLCT	Neg	C[C@@H]1C[C@H]2[C@@H]3CCC4=CC(=O)C=C[C@]4(C)[C@@]3(F)[C@@H](O)C[C@]2(C)[C@@]1(O)C(=O)CO [Dexamethasone (Dex), Dexamethasone]	N (−35<Min % suppression <35: No Effect (denoted as “N”; determined to not affect immunity))

Second part, the compound before the results:

Structure (SMILES)	IL-2 Luc LTT (2H4 cells [1])	Evaluation of Combination (2H4 cells [2])	IL-2 Luc Assay (2H4 cells [3])
CCN(CC)CCCC(C)Nc1ccnc2cc(Cl)ccc12 (stereo not drawn) [Chloroquine (CQ), Chloroquine]	NLCT	Pos	S (Min %; suppression ≥35: Suppression (denoted as “S”; determined to have immunosuppressive action))
OC[C@@H](O)[C@@H](O)[C@H](O)[C@H](O)CO [Mannitol]	I (−35<Min % suppression <35 and 0.7≤Min Inh-GAPLA: Inconclusive (denoted as “I”; possibly not measurable due to low water solubility))	Neg	N (−35<Min % suppression <35: No Effect (denoted as “N”; determined to not affect immunity))
Cc1cn([C@H]2C[C@H](N=[N+]=[N-])[C@@H](CO)O2)c(=O)[nH]c1=O [Retrovir]	NLCT	Pos	A (Min suppression ≤−35: Augmentation (denoted as “A”; determined to have immunoaugmenting action))
Nc1nc2nc[nH]c2c(=S)[nH]1 [6-Thioguanine]	LCT (Min % suppression ≤−35 and Min Inh-GAPLA <0.7: Leukocyte toxic (denoted as “LCT”; determined to have cell growth inhibition action and/or metabolic activity inhibition action))	Pos	N (−35<Min % suppression <35: No Effect (denoted as “N”; determined to not affect immunity))
